Experimental data reported in US20040023211A1, “System and method for optimizing drug theraphy for the treatment of diseases” (priority 2000, published 2004).
Like-named read-outs stand apart in the source and are kept apart here.

Assays:
HIV-1 = type: in vivo, adults infected with HIV-1; details: change in viral load at week 24, sigmoidal Emax model, p<0.05
Method: The normalized inhibitory quotient (NIQ) was determined as: [formula]
Where the IQ in an individual patient (IQpatient) was calculated as ratio of the patient's trough concentration (Cmin) to the susceptibility of the patient's virus to the drug, expressed as fold change compared to wild type virus (Virtual Phenotype). The IQpt was then related to the reference inhibitory quotient (IQref), in which the mean population trough concentration of the drug from the product label was divided by the cut-off value of the fold change for susceptible viruses.
For amprenavir, nelfinavir, and ritonavir, the concentration 12 hours after dosing was used as the Cmin. […]

[1] = Amprenavir trough plasma concentration (Cmin, 12 hours after dosing) by LC-MS/MS in treatment-experienced patients; type: in vivo, adults infected with HIV-1; details: amprenavir 1200 mg bid with abacavir, efavirenz and ritonavir or nelfinavir, 17 patients
Method: Patients were enrolled into three parallel treatment groups that included abacavir 300 mg bid, amprenavir 1200 mg bid, and efavirenz 600 mg daily with either low dose ritonavir at 200 mg BID, high dose ritonavir at 500 mg bid, or nelfinavir 1250 mg bid.
Genotyping (VircoGEN II™, VIRCO) and VIRTUAL PHENOTYPE™ were performed on baseline samples. Viral load data were collected at baseline (mean of two pre-therapy samples) and at week 24. Serial pharmacokinetic samples were collected over 12 hours after week 3 for ritonavir-boosted regimens and after week 2 for nelfinavir-boosted regimens.
Amprenavir concentrations in plasma were determined by a validated LC-MS/MS method.
For amprenavir, nelfinavir, and ritonavir, the concentration 12 hours after dosing was used as the Cmin. For each drug, relationships between viral load change at week 24 and the Cmin, fold-change in resistance, and NIQ were fit to a sigmoidal maximum effect model.

HIV = details: cited from earlier work; for % of patients with viral load below 400 copies/mL at week 24: lopinavir plus efavirenz and 2 NRTIs, 56 patients

SMILES	correlation of NIQ with outcome at 24 weeks (HIV-1)	Cmin, range [1]	% of patients with viral load below 400 copies/mL at week 24 (HIV; lopinavir IQ 4-15) [%]	% of patients with viral load below 400 copies/mL at week 24 (HIV; lopinavir IQ <4) [%]	% of patients with viral load below 400 copies/mL at week 24 (HIV; lopinavir IQ >15) [%]	correlation of trough concentration alone with virologic outcome (HIV; lopinavir trough concentration alone, week 24)
CC(C)CN(C[C@@H](O)[C@H](Cc1ccccc1)NC(=O)O[C@H]1CCOC1)S(=O)(=O)c1ccc(N)cc1 [Amprenavir, amprenavir]	correlated with outcome at 24 weeks	(264-3453) ng/ml	–	–	–	–
Cc1cccc(C)c1OCC(=O)N[C@@H](Cc1ccccc1)[C@@H](O)C[C@H](Cc1ccccc1)NC(=O)[C@H](C(C)C)N1CCCNC1=O [lopinavir]	–	–	80	70	100	no correlation with virologic outcome was found
